Test results published in paper PMC5960316 (Proceedings of the National Academy of Sciences of the …, 2018).
Each block holds one molecule with its values, some of them ahead of it.

What was measured:
[1] = target: T1, B. subtilis class Ib RNR (NrdE with Mn(III)2-Y• NrdF) (Bacillus subtilis, UniProt P50620); assay: spectrophotometric RNR activity assay, dATP titration; assay type: biochemical; conditions: read-out: % activity remaining at 25 μM
T1 sequence (P50620 1-700): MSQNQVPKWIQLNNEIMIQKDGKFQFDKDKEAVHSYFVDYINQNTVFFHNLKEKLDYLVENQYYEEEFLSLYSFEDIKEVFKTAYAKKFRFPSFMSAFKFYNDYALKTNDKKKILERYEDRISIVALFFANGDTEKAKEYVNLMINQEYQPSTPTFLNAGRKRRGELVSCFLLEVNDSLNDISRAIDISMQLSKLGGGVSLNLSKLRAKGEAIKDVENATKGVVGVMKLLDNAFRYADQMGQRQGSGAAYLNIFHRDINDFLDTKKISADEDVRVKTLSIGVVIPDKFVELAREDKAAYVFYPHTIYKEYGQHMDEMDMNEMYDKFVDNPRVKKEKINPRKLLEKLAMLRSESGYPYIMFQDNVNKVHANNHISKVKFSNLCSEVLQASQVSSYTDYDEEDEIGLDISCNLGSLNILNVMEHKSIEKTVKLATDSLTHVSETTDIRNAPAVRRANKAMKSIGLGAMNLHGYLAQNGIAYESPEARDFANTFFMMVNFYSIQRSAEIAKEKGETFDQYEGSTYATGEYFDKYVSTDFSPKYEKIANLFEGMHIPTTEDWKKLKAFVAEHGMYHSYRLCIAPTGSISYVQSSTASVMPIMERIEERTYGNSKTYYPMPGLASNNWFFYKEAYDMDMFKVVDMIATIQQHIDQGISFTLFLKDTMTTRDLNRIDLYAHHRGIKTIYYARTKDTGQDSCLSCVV
T1 sequence (P50621 1-329 partner): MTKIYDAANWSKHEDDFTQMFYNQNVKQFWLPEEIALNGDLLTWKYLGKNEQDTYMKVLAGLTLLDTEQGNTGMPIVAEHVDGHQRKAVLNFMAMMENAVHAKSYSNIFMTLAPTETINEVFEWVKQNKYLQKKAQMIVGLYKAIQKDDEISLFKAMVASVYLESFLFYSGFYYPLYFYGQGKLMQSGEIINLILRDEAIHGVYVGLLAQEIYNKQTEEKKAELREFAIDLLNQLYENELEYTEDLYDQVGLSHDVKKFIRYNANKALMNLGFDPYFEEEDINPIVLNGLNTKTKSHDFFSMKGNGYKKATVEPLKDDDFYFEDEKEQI

[2] = target: T2, endogenous NrdEF (BsNrdEF) (Bacillus subtilis, UniProt P50620); assay: HClO4 release and high-resolution LC/ESI-MS of copurified nucleotide; assay type: binding; conditions: stoichiometry, not affinity; native copurified ligand; protein ~80% pure
T2 sequence (P50620 1-700): T1 sequence (P50620 1-700)
T2 sequence (P50621 1-329 partner): T1 sequence (P50621 1-329 partner)

[3] = target: T3, Bacillus subtilis NrdE isolated from B. subtilis as the NrdE⋅NrdF (NrdEF) complex (Bacillus subtilis, UniProt P50620 1-700); assay: co-purification from B. subtilis
T3 sequence (looked up): T1 sequence (P50620 1-700)

remaining activity at 25 µM [1]: ~15%
Molecule: Nc1ncnc2c1ncn2[C@H]1C[C@H](O)[C@@H](COP(=O)(O)OP(=O)(O)OP(=O)(O)O)O1 [dATP]

dAMP/α [2]: 0.3 per α
Molecule: Nc1ncnc2c1ncn2[C@H]1C[C@H](O)[C@@H](COP(=O)(O)O)O1 [dAMP]

stoichiometry N [3]: ~1
B1: Bacillus subtilis NrdF (Mn-loaded) isolated from B. subtilis as the NrdE⋅NrdF (NrdEF) complex (enzyme, UniProt P50621 1-329, looked up)
chain: T1 sequence (P50621 1-329 partner)
